Reference: patent US9833497B2, “Human originated EGF domain proteins and use of the same” (CHENGDU SOURCEBIO LIMITED-LIABILITY COMPANY, priority 2013, dated 2017)

What was measured:
Type in all cases: cell-based
[1] = system: E. coli BL21; assay: MIC against Gram-negative bacteria: E. coli BL21; settings: 5×10^5 CFU/mL
Summary of the method: (§1)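 MIC = lowest concentration of recombinant protein showing no growth. Test proteins: purified human-derived EGF domain proteins, two-fold dilution series, three wells per concentration; inoculum 5×10^5 CFU/mL in LB; incubation 37° C with shaking at 175 rpm.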

[2] = system: Proteus mirabilis; assay: MIC against Gram-negative bacteria: Proteus mirabilis; settings: 5×10^5 CFU/mL
Summary of the method: as §1

[3] = system: Enterobacter cloacae; assay: MIC against Gram-negative bacteria: Enterobacter cloacae; settings: 5×10^5 CFU/mL
Summary of the method: as §1

[4] = system: E. coli DH5α; assay: Antibacterial activity: MIC and growth curve against E. coli DH5α in 96-well plate; settings: minimal inhibitory concentration against E. coli DH5α; 96-well plate, 5×10^5 CFU/mL, 37° C., judged after 8 h
Summary of the method: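 MIC taken as lowest protein level with no bacterial growth, tracked by A600 every 30 min during 37 °C, 175 rpm culture. Two-fold protein series 50-12.5 μg/mL final, triplicate wells, against 5×10^5 CFU/mL of LB-washed mid-log cells.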

[5] = system: Serratia marcescens; assay: MIC against Gram-negative bacteria: Serratia marcescens; settings: 5×10^5 CFU/mL
Summary of the method: as §1

[6] = system: Moraxella catarrhalis; assay: MIC against Gram-negative bacteria: Moraxella catarrhalis; settings: 5×10^5 CFU/mL
Summary of the method: as §1

[7] = system: Pseudomonas aeruginosa; assay: MIC against Gram-negative bacteria: Pseudomonas aeruginosa; settings: 5×10^5 CFU/mL
Summary of the method: as §1

[8] = system: Proteus vulgaris; assay: MIC against Gram-negative bacteria: Proteus vulgaris; settings: 5×10^5 CFU/mL
Summary of the method: as §1

[9] = system: Aeromonas hydrophila; assay: MIC against Gram-negative bacteria: Aeromonas hydrophila; settings: 5×10^5 CFU/mL
Summary of the method: as §1

[10] = system: Citrobacter diversus; assay: MIC against Gram-negative bacteria: Citrobacter diversus; settings: 5×10^5 CFU/mL
Summary of the method: as §1

[11] = system: Klebsiella pneumonia; assay: MIC against Gram-negative bacteria: Klebsiella pneumonia; settings: 5×10^5 CFU/mL
Summary of the method: as §1

[12] = E. coli BL21, 10 h cultivation at 37° C.
[13] = Proteus mirabilis, 10 h cultivation at 37° C.
[14] = Enterobacter cloacae, 10 h cultivation at 37° C.
[15] = Serratia marcescens, 10 h cultivation at 37° C.
[16] = Moraxella catarrhalis, 10 h cultivation at 37° C.
[17] = Pseudomonas aeruginosa, 10 h cultivation at 37° C.
[18] = Proteus vulgaris, 10 h cultivation at 37° C.
[19] = Aeromonas hydrophila, 10 h cultivation at 37° C.
[20] = Citrobacter diversus, 10 h cultivation at 37° C.
[21] = Klebsiella pneumonia, 10 h cultivation at 37° C.

Row | Substance | MIC against E. coli BL21 [1, 12] [µg/mL] | MIC against P. mirabilis [2, 13] [µg/mL] | MIC against E. cloacae [3, 14] [µg/mL] | MIC [4] [µg/mL] | MIC against S. marcescens [5, 15] [µg/mL] | MIC against M. catarrhalis [6, 16] [µg/mL] | MIC against P. aeruginosa [7, 17] [µg/mL] | MIC against P. vulgaris [8, 18] [µg/mL] | MIC against A. hydrophila [9, 19] [µg/mL] | MIC against C. diversus [10, 20] [µg/mL] | MIC against K. pneumonia [11, 21] [µg/mL] | MIC against E. coli BL21 ([1]; 96-well plate, 37° C., 10 h) [µg/mL] | MIC against P. mirabilis ([2]; 96-well plate, 37° C., 10 h) [µg/mL] | MIC against E. cloacae ([3]; 96-well plate, 37° C., 10 h) [µg/mL] | MIC against S. marcescens ([5]; 96-well plate, 37° C., 10 h) [µg/mL] | MIC against M. catarrhalis ([6]; 96-well plate, 37° C., 10 h) [µg/mL] | MIC against P. aeruginosa ([7]; 96-well plate, 37° C., 10 h) [µg/mL] | MIC against P. vulgaris ([8]; 96-well plate, 37° C., 10 h) [µg/mL] | MIC against A. hydrophila ([9]; 96-well plate, 37° C., 10 h) [µg/mL] | MIC against C. diversus ([10]; 96-well plate, 37° C., 10 h) [µg/mL] | other results
1 | PRT1430 (DINECAHADPCFPGSSCINTMPGFHCEACPRGYKGTQVS; listed as Homo sapiens) | 12.5 | 25 | 25 | 25 | 25 | 12.5 | 25 | 12.5 | 12.5 | 25 | 12.5 | – | – | – | – | – | – | – | – | – | –
2 | PRT474 (QADPCQPNPCEHGGDCLVHGSTFTCSCLAPFSGNKCQ; listed as Homo sapiens) | – | – | – | 12.5 | – | – | – | – | – | – | – | 25 | 12.5 | 25 | 12.5 | 50 | 25 | 50 | 50 | 12.5 | MIC against K. pneumonia ([11]; 96-well plate, 37° C., 10 h): 25 µg/mL
3 | PRT602 (CKCHPQGSVGSSCSRLGGQCQCKPLVVGRCCDRCSTGSYDLGHHGCHP; listed as Homo sapiens) | – | – | – | 50 | – | – | – | – | – | – | – | – | – | – | – | – | – | – | – | – | MIC E. coli BL21 ([1]; 96-well plate, 37° C., 10 h): 12.5 µg/mL; MIC P. mirabilis ([2]; 96-well plate, 37° C., 10 h): 50 µg/mL; MIC E. cloacae ([3]; 96-well plate, 37° C., 10 h): 50 µg/mL; MIC S. marcescens ([5]; 96-well plate, 37° C., 10 h): 12.5 µg/mL; MIC M. catarrhalis ([6]; 96-well plate, 37° C., 10 h): 12.5 µg/mL; MIC P. aeruginosa ([7]; 96-well plate, 37° C., 10 h): 50 µg/mL; MIC P. vulgaris ([8]; 96-well plate, 37° C., 10 h): 25 µg/mL; MIC A. hydrophila ([9]; 96-well plate, 37° C., 10 h): 12.5 µg/mL; MIC C. diversus ([10]; 96-well plate, 37° C., 10 h): 50 µg/mL; MIC K. pneumonia ([11]; 96-well plate, 37° C., 10 h): 12.5 µg/mL
4 | PRT543 (CGCHEVGATGPTCEPFGGQCPCHAHVIGRDCSRCATGYWGFPNCRP; listed as Homo sapiens) | – | – | – | 12.5 | – | – | – | – | – | – | – | 50 | 25 | 12.5 | 25 | 12.5 | 12.5 | 50 | 50 | 25 | MIC against K. pneumonia ([11]; 96-well plate, 37° C., 10 h): 50 µg/mL
5 | PRT1407 (LKTMCPDQCSGHGTYLQESGSCTCDPNWTGPDCS; listed as Homo sapiens) | 25 | 12.5 | 12.5 | 50 | 25 | 50 | 12.5 | 12.5 | 50 | 12.5 | 12.5 | – | – | – | – | – | – | – | – | – | –
